Test results as given in patent US10752617B2 (GALDERMA RESEARCH & DEVELOPMENT, priority 2014, dated 2020).

target: T1, GAL4-RORγ (GAL4 DBD fused to the ROR gamma ligand-binding domain) (Homo sapiens, UniProt P51449); assay: GAL4-RORγ transactivation (luciferase reporter, HG5LN HeLa line); format: cell-based; settings: HG5LN HeLa cells, 18 hours incubation, luciferase luminescence, read-out: IC50 hRORg
T1 construct: expressed in transfected cells; host or cells: HG5LN (HeLa line with GAL4-responsive luciferase reporter)
T1 sequence (P51449 269-508 limits assumed): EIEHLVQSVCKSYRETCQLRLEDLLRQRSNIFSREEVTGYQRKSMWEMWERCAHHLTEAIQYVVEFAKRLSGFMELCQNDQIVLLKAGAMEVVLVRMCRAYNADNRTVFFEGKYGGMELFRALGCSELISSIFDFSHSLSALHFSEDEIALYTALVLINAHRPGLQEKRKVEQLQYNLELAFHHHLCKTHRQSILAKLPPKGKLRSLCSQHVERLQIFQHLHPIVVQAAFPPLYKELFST
Source text: In the tables described above, the median inhibitory concentrations IC50 for the compounds belonging to formula (I) according to the invention have been given according to the following models:
GAL4-RORγ Transactivation
The RORγ transactivation model was developed from the line HG5LN, which is a HeLa line that stably expresses a luciferase reporter gene controlled by a pentamer of the GAL4 recognition domain of yeast and of a β-globin promoter. The HG5LN line was stably transfected by the DNA-binding domain (DBD) of GAL4 fused to the ROR gamma ligand-binding domain (LBD). Molecules that inhibit the ROR gamma constitutive activity reduce the luciferase expression, thus leading to a reduction in the emitted luminescence.
The cells are seeded in 384-well plates (5000 cells in 45 μL/well of culture medium containing 10% fetal calf serum) and incubated for 4 hours at 37° C., 5% CO2. 5 μL of the test molecules (compounds described in the tables described above) are then added to each well and the plates are incubated for 18 hours at a temperature of 37° C. under 5% of CO2. 20 μL of luciferase substrate (Promega) are added to each well and the luminescence emitted is read by a microplate reader.
The luminescence units (“RLU”) are normalized by positive controls (“POS” containing a saturated concentration of N-(2,2,2-trifluoroethyl)-N-[4-[2,2,2-trifluoro-1-hydroxy-1-(trifluoromethyl)ethyl]phenyl])benzenesulfonamide and negative controls (“NEG” containing DMSO): % inhibition=((RLU−NEG)*100)/(POS−NEG). The IC50 values are calculated from a 4-parameter logistic model using the XLFit software (IDBS).

Compound | IC50 [nM]
CCc1ccc(N(CC(C)C)S(=O)(=O)c2ccc3c(CN4CCOC[C@@H]4C)n[nH]c3c2)cc1 [Compound 66, 3-((S)-3-methylmorpholin-4-ylmethyl)-1H-indazole-6-sulfonic acid (4-ethylphenyl)isobutylamide] | 100 to 1000
CCc1ccc(N(CC(CO)CCl)S(=O)(=O)c2ccc3c(cnn3CC3CCOCC3)c2)cc1 (stereo not drawn) [Compound 60, 1-(tetrahydropyran-4-ylmethyl)-1H-indazole-5-sulfonic acid (3-chloro-2-hydroxymethylpropyl)(4-ethylphenyl)amide] | > 1000
CCc1ccc(N(CC(C)C)S(=O)(=O)c2ccc3c(cnn3CC3CCOC3)c2)cc1 (stereo not drawn) [Compound 21, N-(4-ethylphenyl)-N-isobutyl-1-((tetrahydrofuran-3-yl)methyl)-1H-indazole-5-sulfonamide] | > 1000
CCc1ccc(N(C2CCCC2)S(=O)(=O)c2ccc3c(cnn3CC3CCOCC3)c2)cc1 [Compound 32, 1-(tetrahydropyran-4-ylmethyl)-1H-indazole-5-sulfonic acid cyclopentyl(4-ethylphenyl)amide] | < 100
CCc1ccc(N(CC(C)C)S(=O)(=O)c2ccc3c(cnn3Cc3c(C)noc3C)c2)cc1 [Compound 6, 1-((3,5-dimethylisoxazol-4-yl)methyl)-N-(4-ethylphenyl)-N-isobutyl-1H-indazole-5-sulfonamide] | 100 to 1000
Cc1cccc(N(CC(C)C)S(=O)(=O)c2ccc3c(cnn3CC3CCOCC3)c2)c1 [Compound 26, 1-(tetrahydropyran-4-ylmethyl)-1H-indazole-5-sulfonic acid (3-methylphenyl)isobutylamide] | > 1000
CC(C)CN(c1cccc(Cl)c1)S(=O)(=O)c1ccc2c(cnn2CC2CCOCC2)c1 [Compound 44, 1-(tetrahydropyran-4-ylmethyl)-1H-indazole-5-sulfonic acid (5-chlorophenyl)isobutylamide] | > 1000
CCc1ccc(N(CC2CCOC2)S(=O)(=O)c2ccc3c(cnn3CC3CCOCC3)c2)cc1 (stereo not drawn) [Compound 33, 1-(tetrahydropyran-4-ylmethyl)-1H-indazole-5-sulfonic acid (4-ethylphenyl)(tetrahydrofuran-3-ylmethyl)amide] | > 1000
CCc1ccc(N(C2CC2)S(=O)(=O)c2ccc3c(cnn3CC3CCOCC3)c2)cc1 [Compound 3, 1-(tetrahydropyran-4-ylmethyl)-1H-indazole-5-sulfonic acid cyclopropyl(4-ethylphenyl)amide] | > 1000
Cc1ccc(N(CC(C)C)S(=O)(=O)c2ccc3c(cnn3CC3CCOCC3)c2)cc1 [Compound 47, 1-(tetrahydropyran-4-ylmethyl)-1H-indazole-5-sulfonic acid isobutyl-p-tolylamide] | > 1000
Cc1ccc(N(CC(C)C)S(=O)(=O)c2ccc3c(cnn3CC3CCOCC3)c2)c(C)c1 [Compound 27, 1-(tetrahydropyran-4-ylmethyl)-1H-indazole-5-sulfonic acid (2,4-dimethylphenyl)isobutylamide] | 100 to 1000
CC(C)CN(c1ccccc1C(F)(F)F)S(=O)(=O)c1ccc2c(cnn2CC2CCOCC2)c1 [Compound 58, 1-(tetrahydropyran-4-ylmethyl)-1H-indazole-5-sulfonic acid isobutyl(2-trifluoromethylphenyl)amide] | 100 to 1000
CC(C)CN(c1ccccc1Cl)S(=O)(=O)c1ccc2c(cnn2CC2CCOCC2)c1 [Compound 45, 1-(tetrahydropyran-4-ylmethyl)-1H-indazole-5-sulfonic acid (2-chlorophenyl)isobutylamide] | > 1000
CCc1ccc(N(CC(C)C)S(=O)(=O)c2ccc3[nH]nc(N)c3c2)cc1 [Compound 34, 3-amino-1H-indazole-5-sulfonic acid (4-ethylphenyl)isobutylamide] | > 1000
Cc1cc(F)ccc1N(CC(C)C)S(=O)(=O)c1ccc2c(cnn2CC2CCOCC2)c1 [Compound 54, 1-(tetrahydropyran-4-ylmethyl)-1H-indazole-5-sulfonic acid (4-fluoro-2-methylphenyl)isobutylamide] | 100 to 1000
COc1ccc(N(CC(C)C)S(=O)(=O)c2ccc3c(cnn3CC3CCOCC3)c2)c(C)c1 [Compound 55, 1-(tetrahydropyran-4-ylmethyl)-1H-indazole-5-sulfonic acid isobutyl(4-methoxy-2-methylphenyl)amide] | 100 to 1000
Cc1ccc(F)cc1N(CC(C)C)S(=O)(=O)c1ccc2c(cnn2CC2CCOCC2)c1 [Compound 42, 1-(tetrahydropyran-4-ylmethyl)-1H-indazole-5-sulfonic acid (5-fluoro-2-methylphenyl)isobutylamide] | 100 to 1000
CC(C)CN(Cc1ccccc1C(F)(F)F)S(=O)(=O)c1ccc2c(cnn2CC2CCOCC2)c1 [Compound 52, 1-(tetrahydropyran-4-ylmethyl)-1H-indazole-5-sulfonic acid isobutyl(2-trifluoromethylbenzyl)amide] | 100 to 1000
CCc1ccc(N(CCC(C)C)S(=O)(=O)c2ccc3c(cnn3CC3CCOCC3)c2)cc1 [Compound 35, N-(4-ethylphenyl)-N-isopentyl-1-((tetrahydro-2H-pyran-4-yl)methyl)-1H-indazole-5-sulfonamide] | > 1000
CCc1ccc(N(CC(C)C)S(=O)(=O)c2ccc3[nH]nc(OCC4CCOCC4)c3c2)cc1 [Compound 61, 3-(tetrahydropyran-4-ylmethoxy)-1H-indazole-5-sulfonic acid (4-ethylphenyl)isobutylamide] | > 1000
CCc1ccc(N(CC(C)C)S(=O)(=O)c2ccc3c(cnn3CC3CCCOC3)c2)cc1 (stereo not drawn) [Compound 22, N-(4-ethylphenyl)-N-isobutyl-1-((tetrahydro-2H-pyran-3-yl)methyl)-1H-indazole-5-sulfonamide] | > 1000
CCc1ccc(N(CC(C)C)S(=O)(=O)c2ccc3c(cnn3C3CCN(C(C)=O)C3)c2)cc1 (stereo not drawn) [Compound 40, 1-(1-acetylpyrrolidin-3-yl)-1H-indazole-5-sulfonic acid (4-ethylphenyl)isobutylamide] | > 1000
CCc1ccc(N(CC2CCC2)S(=O)(=O)c2ccc3c(cnn3CC3CCOCC3)c2)cc1 [Compound 24, N-(cyclobutylmethyl)-N-(4-ethylphenyl)-1-((tetrahydro-2H-pyran-4-yl)methyl)-1H-indazole-5-sulfonamide] | 100 to 1000
CCCCN(c1ccc(CC)cc1)S(=O)(=O)c1ccc2c(cnn2CC2CCOCC2)c1 [Compound 9, 1-(tetrahydropyran-4-ylmethyl)-1H-indazole-5-sulfonic acid butyl(4-ethylphenyl)amide] | > 1000
Cc1cccc(F)c1N(CC(C)C)S(=O)(=O)c1ccc2c(cnn2CC2CCOCC2)c1 [Compound 53, 1-(tetrahydropyran-4-ylmethyl)-1H-indazole-5-sulfonic acid (2-fluoro-6-methylphenyl)isobutylamide] | > 1000
CC(C)CN(Cc1cccc(Cl)c1)S(=O)(=O)c1ccc2c(cnn2CC2CCOCC2)c1 [Compound 51, 1-(tetrahydropyran-4-ylmethyl)-1H-indazole-5-sulfonic acid (3-chlorobenzyl)isobutylamide] | > 1000
CCc1ccc(N(C(C)CC)S(=O)(=O)c2ccc3c(cnn3CC3CCOCC3)c2)cc1 (stereo not drawn) [Compound 30, 1-(tetrahydropyran-4-ylmethyl)-1H-indazole-5-sulfonic acid sec-butyl(4-ethylphenyl)amide] | 100 to 1000
